A short description of data set [1]: Microsomal stability, human liver microsomes. The procedure:
(§1) GIBIO pooled human liver microsomes (HLM) (Cat # HMMCPL), mouse liver microsomes (MLM) (Cat # BCMCPL), and rat liver microsomes (RLM) (Cat # RTMCPL) were purchased from Life Technologies. […] Samples are incubated for 30, 45, or 60 min. Reaction is terminated with ice-cold acetonitrile 0.3% formic acid. Samples are subsequently centrifuged at 4° C. for 15 min at 20,000×g. The supernatant is analysed by LC-MS.
(§2) Compound in vitro metabolic stability was assayed using liver microsomes (LM) at 0.5 mg/mL of proteins, incubated for 30 min (mouse, MLM), 45 min (rat, RLM), 30 or 45 min (human, HLM). % of remaining parent compound was measured using LC-MS.

Data set [2] in a line: Microsomal stability, mouse liver microsomes. The procedure:
as §1, §2

A short description of data set [3]: Microsomal stability, rat liver microsomes. As for the experimental part: as §1, §2
The target in data set [4] is T1, PI3Kα (Homo sapiens, UniProt P42336).
T1 construct: purchased Invitrogen, or BPS Bioscience Inc., or SignalChem PV4788 / 40620 / P27-18H
T1 sequence (P42336 whole entry): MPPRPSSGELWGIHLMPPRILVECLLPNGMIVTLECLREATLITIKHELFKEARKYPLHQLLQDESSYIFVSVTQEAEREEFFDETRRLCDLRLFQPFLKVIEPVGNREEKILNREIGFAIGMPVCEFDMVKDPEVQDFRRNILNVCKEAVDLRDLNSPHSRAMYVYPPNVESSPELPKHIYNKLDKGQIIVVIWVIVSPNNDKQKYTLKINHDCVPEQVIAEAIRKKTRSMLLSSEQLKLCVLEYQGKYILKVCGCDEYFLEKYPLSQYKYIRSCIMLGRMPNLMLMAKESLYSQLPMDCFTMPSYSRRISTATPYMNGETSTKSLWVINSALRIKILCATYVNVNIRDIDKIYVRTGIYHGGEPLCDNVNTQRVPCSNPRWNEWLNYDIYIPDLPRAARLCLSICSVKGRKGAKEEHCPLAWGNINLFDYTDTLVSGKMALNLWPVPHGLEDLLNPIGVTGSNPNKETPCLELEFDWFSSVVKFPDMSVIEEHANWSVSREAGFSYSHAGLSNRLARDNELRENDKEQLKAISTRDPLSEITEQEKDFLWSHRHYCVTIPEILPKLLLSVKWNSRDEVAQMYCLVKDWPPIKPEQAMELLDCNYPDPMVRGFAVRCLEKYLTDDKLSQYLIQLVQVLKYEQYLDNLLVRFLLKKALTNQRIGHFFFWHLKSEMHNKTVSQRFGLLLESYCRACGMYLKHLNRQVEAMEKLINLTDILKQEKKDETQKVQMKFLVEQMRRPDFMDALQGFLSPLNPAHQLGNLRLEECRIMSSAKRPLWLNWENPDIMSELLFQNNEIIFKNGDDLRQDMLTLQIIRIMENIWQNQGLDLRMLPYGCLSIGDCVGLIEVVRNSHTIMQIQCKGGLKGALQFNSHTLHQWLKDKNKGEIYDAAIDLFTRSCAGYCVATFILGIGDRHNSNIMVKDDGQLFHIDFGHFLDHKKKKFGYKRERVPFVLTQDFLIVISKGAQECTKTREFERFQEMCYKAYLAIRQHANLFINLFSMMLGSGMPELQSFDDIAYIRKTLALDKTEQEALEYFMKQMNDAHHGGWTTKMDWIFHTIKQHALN
T1 sequence (P27986 whole entry partner): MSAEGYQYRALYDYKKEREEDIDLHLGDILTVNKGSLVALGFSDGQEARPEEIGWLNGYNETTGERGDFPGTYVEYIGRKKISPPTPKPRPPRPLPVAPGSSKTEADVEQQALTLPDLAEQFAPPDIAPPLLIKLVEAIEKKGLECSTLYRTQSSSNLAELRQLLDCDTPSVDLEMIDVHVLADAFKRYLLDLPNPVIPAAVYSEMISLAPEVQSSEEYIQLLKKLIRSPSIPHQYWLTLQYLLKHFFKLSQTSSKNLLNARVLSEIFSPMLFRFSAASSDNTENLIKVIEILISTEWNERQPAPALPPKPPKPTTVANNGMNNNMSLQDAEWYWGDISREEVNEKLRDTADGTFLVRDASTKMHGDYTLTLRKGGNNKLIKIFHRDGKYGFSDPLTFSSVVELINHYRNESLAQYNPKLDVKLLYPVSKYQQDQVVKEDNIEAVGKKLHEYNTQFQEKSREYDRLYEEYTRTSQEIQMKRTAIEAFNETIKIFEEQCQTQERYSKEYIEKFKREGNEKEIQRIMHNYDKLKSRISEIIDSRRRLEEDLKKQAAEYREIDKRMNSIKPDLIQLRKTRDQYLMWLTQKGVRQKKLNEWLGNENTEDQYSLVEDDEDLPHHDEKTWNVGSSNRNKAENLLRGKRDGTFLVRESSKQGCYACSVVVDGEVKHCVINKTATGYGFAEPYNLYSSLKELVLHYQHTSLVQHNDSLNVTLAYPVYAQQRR
Nature of the data set: Kinase enzyme assay (ADP-Glo), PI3Kα. It is filed as biochemical. The conditions noted are these: read-out: In Vitro Enzymatic IC50 PI3Kα.

In data set [5] the test system is COLO 205. Nature of the data set: cells. The conditions noted are these: Homo sapiens, COLO 205, 72 h, read-out: In Vitro Cellular IC50 COLO 205.
The subject of data set [6] is HCT 116. Nature of the data set: cells. The conditions noted are these: Homo sapiens, HCT-116, 72 h, read-out: In Vitro Cellular IC50 HCT 116.
The test system of data set [7] is MV-4-11. Nature of the data set: cells. As to conditions: Homo sapiens, MV4-11, 72 h, read-out: In Vitro Cellular IC50 MV-4-11.
Data set [8] concerns the target HDAC1 (Homo sapiens, UniProt Q13547). Nature of the data set: HDAC enzyme assay, recombinant HDAC1.
Data set [9] addresses T2, HDAC6 (Homo sapiens, UniProt Q9UBN7).
T2 sequence (Q9UBN7 1-1215): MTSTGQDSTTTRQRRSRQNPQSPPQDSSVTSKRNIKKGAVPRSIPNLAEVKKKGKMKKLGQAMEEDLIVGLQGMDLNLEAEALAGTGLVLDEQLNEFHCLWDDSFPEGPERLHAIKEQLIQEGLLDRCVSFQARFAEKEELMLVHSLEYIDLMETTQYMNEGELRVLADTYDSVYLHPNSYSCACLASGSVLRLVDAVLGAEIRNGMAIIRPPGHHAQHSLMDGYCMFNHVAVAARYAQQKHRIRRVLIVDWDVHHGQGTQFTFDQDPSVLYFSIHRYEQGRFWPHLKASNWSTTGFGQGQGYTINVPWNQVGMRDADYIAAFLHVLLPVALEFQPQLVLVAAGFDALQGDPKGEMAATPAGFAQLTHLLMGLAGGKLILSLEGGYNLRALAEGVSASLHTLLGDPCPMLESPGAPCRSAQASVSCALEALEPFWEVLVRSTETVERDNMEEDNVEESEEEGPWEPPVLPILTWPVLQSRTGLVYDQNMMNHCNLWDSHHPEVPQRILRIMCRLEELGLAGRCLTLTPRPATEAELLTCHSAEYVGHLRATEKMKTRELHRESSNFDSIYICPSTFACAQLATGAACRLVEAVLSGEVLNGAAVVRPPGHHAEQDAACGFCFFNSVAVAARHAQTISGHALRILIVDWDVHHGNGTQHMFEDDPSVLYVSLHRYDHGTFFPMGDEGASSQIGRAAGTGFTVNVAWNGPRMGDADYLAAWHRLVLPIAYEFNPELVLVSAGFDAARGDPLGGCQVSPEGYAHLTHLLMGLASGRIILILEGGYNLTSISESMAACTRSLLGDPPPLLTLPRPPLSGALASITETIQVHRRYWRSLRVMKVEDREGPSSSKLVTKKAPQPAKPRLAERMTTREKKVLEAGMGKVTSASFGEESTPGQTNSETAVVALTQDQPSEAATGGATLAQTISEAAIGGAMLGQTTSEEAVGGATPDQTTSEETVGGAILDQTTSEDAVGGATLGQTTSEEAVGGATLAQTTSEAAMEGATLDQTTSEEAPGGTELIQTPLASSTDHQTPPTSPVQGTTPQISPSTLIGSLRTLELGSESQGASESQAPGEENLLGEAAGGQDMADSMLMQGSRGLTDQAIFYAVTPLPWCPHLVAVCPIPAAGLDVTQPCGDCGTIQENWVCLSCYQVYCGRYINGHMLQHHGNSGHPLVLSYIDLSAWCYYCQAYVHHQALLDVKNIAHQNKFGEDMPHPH
Nature of the data set: HDAC enzyme assay, recombinant HDAC6.

Data set [10] concerns the target HDAC (HeLa nuclear extracts). Nature of the data set: HDAC enzyme assay, HeLa nuclear extracts. The conditions noted are these: read-out: In Vitro Enzymatic IC50 HDAC (HeLa).
Data set [11] has as its system MCF7. Nature of the data set: Anti-proliferative assay (cellular IC50), MCF7. As to conditions: Homo sapiens, MCF7, 72 h, read-out: In Vitro Cellular IC50 MCF7.
The subject of data set [12] is PC-3. Nature of the data set: Anti-proliferative assay (cellular IC50), PC-3. The conditions noted are these: Homo sapiens, PC-3, 72 h, read-out: In Vitro Cellular IC50 PC-3.
In data set [13] the test system is K-562. Nature of the data set: Anti-proliferative assay (cellular IC50), K-562. As to conditions: Homo sapiens, K562, 72 h, read-out: In Vitro Cellular IC50 K-562.
The test system of data set [14] is MOLT-4. Nature of the data set: Anti-proliferative assay (cellular IC50), MOLT-4. As to conditions: Homo sapiens, MOLT-4, 72 h, read-out: In Vitro Cellular IC50 MOLT-4.
[15] abbreviates: human, microsomes, 0.75 h, 5 μM, pH 7.4.
Setting [16] is: mouse, microsomes, 0.5 h, 5 μM, pH 7.4.
Where [17] appears, read: rat, microsomes, 0.75 h, 5 μM, pH 7.4.

Sequence of HDAC1 (Q13547 whole entry): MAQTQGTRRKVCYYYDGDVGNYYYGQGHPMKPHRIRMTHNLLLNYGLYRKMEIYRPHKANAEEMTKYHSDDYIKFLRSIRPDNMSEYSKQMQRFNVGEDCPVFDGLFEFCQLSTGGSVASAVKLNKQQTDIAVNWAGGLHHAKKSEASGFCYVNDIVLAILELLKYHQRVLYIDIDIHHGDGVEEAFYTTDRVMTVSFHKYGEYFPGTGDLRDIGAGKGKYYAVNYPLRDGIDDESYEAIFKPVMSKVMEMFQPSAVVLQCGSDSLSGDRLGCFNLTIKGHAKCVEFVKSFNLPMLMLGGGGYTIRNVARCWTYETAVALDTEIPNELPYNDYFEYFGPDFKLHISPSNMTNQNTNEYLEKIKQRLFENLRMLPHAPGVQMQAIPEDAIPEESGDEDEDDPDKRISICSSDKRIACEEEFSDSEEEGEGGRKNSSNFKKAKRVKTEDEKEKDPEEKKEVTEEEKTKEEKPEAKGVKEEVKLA

For the molecule `COc1ccc2c(c1)[C@]13CCCC[C@@H]1[C@H](C2)N(C)CC3` [Dextromethorphan, dextromethorphan, reference compound], the “Microsomal Stability HLM, % of remaining parent compound” value in data set [1] (human liver microsomes 0.5 mg/mL, compound 5 μM, 30 or 45 min) is 65%. The “Microsomal Stability MLM, % of remaining parent compound” value in data set [2] (mouse liver microsomes 0.5 mg/mL, compound 5 μM, 30 min) was 19%. Moreover, the “Microsomal Stability RLM, % of remaining parent compound” value in [3] (rat liver microsomes 0.5 mg/mL, compound 5 μM, 45 min) came to 5%.
For `CC(C)n1c(NCCCCCC(=O)NO)nc2c(-c3cnc(N)nc3)nc(N3CCOCC3)nc21` [compound 6], the concentration for half-maximal inhibition (IC50) in data set [4] was in the range of 10 to 100 nM; in data set [5], 2000 to 10000 nM; in [6], 500 to 2000 nM; in data set [7] it was 500 to 2000 nM; in [8] it was 10 to 100 nM; in data set [9] it was 100 to 1000 nM. Moreover, the IC50 in data set [10] is 100 to 1000 nM; in [11], 2000 to 10000 nM; in data set [12] it was 2000 to 10000 nM; in [13], 2000 to 10000 nM; in data set [14], 2000 to 10000 nM. The “Microsomal Stability HLM, % of remaining parent compound” value in data set [1] (setting [15]) was 88%. For the same molecule, the “Microsomal Stability MLM, % of remaining parent compound” value in data set [2] (setting [16]) is given as 89%. The “Microsomal Stability RLM, % of remaining parent compound” value in data set [3] (setting [17]) is 88%.
Regarding `CC(C)n1cnc2c(-c3cccc(OCCCCC(=O)NO)c3)nc(N3CCOCC3)nc21` [compound 10, N-hydroxy-5-(3-(9-isopropyl-2-morpholino-9H-purin-6-yl)phenoxy)pentanamide], the IC50 in data set [4] was 1000 to 10000 nM; in data set [5], 2000 to 10000 nM; in data set [7] it was below 500 nM; in data set [8] it was 100 to 1000 nM; in data set [10], 10 to 100 nM; in [11], 500 to 2000 nM. Besides, the IC50 was in the range of 2000 to 10000 nM in [12] and 500 to 2000 nM in data set [13]. The “Microsomal Stability HLM, % of remaining parent compound” value in data set [1] (setting [15]) is 87%. In addition, in data set [3] (setting [17]), the “Microsomal Stability RLM, % of remaining parent compound” value is 74%.
On to `CC(C)n1cnc2c(-c3cccc(OCCCC(=O)NO)c3)nc(N3CCCC3)nc21` [compound 29, N-hydroxy-4-(3-(9-isopropyl-2-(pyrrolidin-1-yl)-9H-purin-6-yl)phenoxy)butanamide], for which the “Microsomal Stability HLM, % of remaining parent compound” value in data set [1] (setting [15]) was 97%. For the same molecule, the “Microsomal Stability MLM, % of remaining parent compound” value in data set [2] (setting [16]) worked out at 75%. Moreover, the “Microsomal Stability RLM, % of remaining parent compound” value in data set [3] (setting [17]) is listed as 9%. Also, the IC50 in [5] is 500 to 2000 nM; in [6] it was below 500 nM; in data set [7] it was below 500 nM; in [8], 10 to 100 nM; in data set [10], 100 to 1000 nM; in data set [11], 500 to 2000 nM. Also, the IC50 is 500 to 2000 nM in data set [12], 500 to 2000 nM in [13] and below 500 nM in data set [14].
Turning to `CC(C)n1cnc2c(-c3cccc(OCCCC(=O)NO)c3)nc(N(C)C)nc21` [compound 31, 4-(3-(2-(dimethylamino)-9-isopropyl-9H-purin-6-yl)phenoxy)-N-hydroxybutanamide], the “Microsomal Stability HLM, % of remaining parent compound” value in data set [1] (setting [15]) was 90%. Moreover, in [2] (setting [16]), the “Microsomal Stability MLM, % of remaining parent compound” value was 53%. In data set [3] (setting [17]), the “Microsomal Stability RLM, % of remaining parent compound” value amounted to 25%. Besides, the IC50 in data set [5] was 500 to 2000 nM; in data set [7], below 500 nM; in data set [8], 10 to 100 nM; in data set [10] it was 10 to 100 nM; in data set [11], 500 to 2000 nM; in data set [12] it was 2000 to 10000 nM. Further, the IC50 in data set [13] and in data set [14] was 500 to 2000 nM throughout.
Regarding `CCCn1cnc2c(-c3cccc(OCCCC(=O)NO)c3)nc(N3CCOCC3)nc21` [compound 43, N-hydroxy-4-(3-(2-morpholino-9-propyl-9H-purin-6-yl)phenoxy)butanamide], the “Microsomal Stability HLM, % of remaining parent compound” value in data set [1] (setting [15]) worked out at 97%. Further, the “Microsomal Stability MLM, % of remaining parent compound” value in [2] (setting [16]) stood at 96%. Further, the “Microsomal Stability RLM, % of remaining parent compound” value in data set [3] (setting [17]) amounted to 54%. Moreover, the IC50 in data set [5] is 500 to 2000 nM; in data set [7], below 500 nM; in data set [8], 100 to 1000 nM; in [10], 10 to 100 nM; in data set [11], 500 to 2000 nM; in [12], 500 to 2000 nM. Besides, the IC50 in data set [13] and in data set [14] was below 500 nM each time.
Regarding `CCn1cnc2c(-c3cccc(OCCCC(=O)NO)c3)nc(N3CCOCC3)nc21` [compound 45, 4-(3-(9-ethyl-2-morpholino-9H-purin-6-yl)phenoxy)-N-hydroxybutanamide], the “Microsomal Stability HLM, % of remaining parent compound” value in data set [1] (setting [15]) came to 105%. Moreover, the “Microsomal Stability MLM, % of remaining parent compound” value in [2] (setting [16]) was determined as 78%. Moreover, the “Microsomal Stability RLM, % of remaining parent compound” value in [3] (setting [17]) is 45%. Also, the IC50 is 500 to 2000 nM in [5]; below 500 nM in data set [7]; 100 to 1000 nM in [8]; 10 to 100 nM in data set [10]; 500 to 2000 nM in data set [11]; 500 to 2000 nM in [12]. The figures for the IC50 in data set [13] and in data set [14] were 500 to 2000 nM and below 500 nM, respectively.
For the molecule `CCn1c(CN(C)Cc2ccc(/C=C/C(=O)NO)cc2)nc2c(N3CCOCC3)nc(-c3cnc(N)nc3)nc21` [compound 89, (E)-3-(4-((((2-(2-aminopyrimidin-5-yl)-9-ethyl-6-morpholino-9H-purin-8-yl)methyl)(methyl)amino)methyl)phenyl)-N-hydroxyacrylamide], the IC50 in [4] was in the range of 10 to 100 nM; in data set [5], 2000 to 10000 nM; in data set [8], 100 to 1000 nM; in data set [10] it was 100 to 1000 nM; in [11] it was 500 to 2000 nM; in data set [12] it was 2000 to 10000 nM. The IC50 in data set [13] was in the range of 2000 to 10000 nM; in data set [14], 500 to 2000 nM. Besides, in [1] (setting [15]), the “Microsomal Stability HLM, % of remaining parent compound” value is on record as 87%. Moreover, the “Microsomal Stability MLM, % of remaining parent compound” value in data set [2] (setting [16]) came out at 70%. Moreover, the “Microsomal Stability RLM, % of remaining parent compound” value in [3] (setting [17]) is on record as 70%.

The record behind these values is patent publication US9957270B2, “Fused pyrimidine-based hydroxamate derivatives” (Agency for Science, Technology and Research, priority 2014, dated 2018).
